According to US20100267706A1, “Compounds, Compositions and Methods Comprising Pyridazine Derivatives” (Institute for OneWorld Health, priority 2009, published 2010):

target: T1, CFTR (Homo sapiens, UniProt P13569); test: T84 assay (FLIPR membrane potential, forskolin/IBMX-stimulated CFTR channel activity); format: cell-based; conditions: Human colonic T84 cells; average of at least 2 runs unless annotated n = 1
T1 construct: host or cells: Human colonic T84 cells
Protocol: (§1) For example, Human colonic T84 cells can be acquired from the European Collection of Cell Cultures (ECACC) and grown in standard culture conditions as described by the supplier. On the day before assay 25,000 T84 cells per well are plated into standard black walled, clear bottom 384-well assay plates in standard growth medium consisting of DMEM:F12 with 10% FBS and incubated overnight. On the day of the assay the plates are washed using a standard assay buffer (HBSS with 10 mM Hepes) and incubated for 15 minutes in serum free cell culture medium before the addition of a commercially available membrane potential sensitive fluorescent dye (FLIPR Red membrane potential dye, Molecular Devices Corporation). T84 cells are incubated with the FLIPR Red membrane potential dye for 45 minutes in the presence and absence of test compound before being transferred to a commercially available fluorescence imaging plate reader (FLIPR384, Molecular Devices Corporation). Fluorescence levels are monitored continuously every second for 150 seconds; after an initial 10 second baseline, CFTR channel activity is stimulated through the addition of 10 μM forskolin in the presence of 100 μM of the phosphodiesterase inhibitor iso-butyl-methylxanthine (IBMX). Addition of the forskolin leads to the activation of intracellular adenylyl cylase 1, elevating cAMP levels and results in the phosphorylation and opening of CFTR anion channels. CFTR channel opening causes chloride ion efflux and subsequent depolarization of the cells, which is measured by an increase in fluorescence. CFTR inhibitor compounds prevent cell depolarization and the associated increase in fluorescence.
as §1, with “Human colonic” for “For example, Human colonic”, “T84 cells are acquired from” for “T84 cells can be acquired from”, “(ECACC) and are grown in” for “(ECACC) and grown in”

T1 sequence (P13569 whole entry): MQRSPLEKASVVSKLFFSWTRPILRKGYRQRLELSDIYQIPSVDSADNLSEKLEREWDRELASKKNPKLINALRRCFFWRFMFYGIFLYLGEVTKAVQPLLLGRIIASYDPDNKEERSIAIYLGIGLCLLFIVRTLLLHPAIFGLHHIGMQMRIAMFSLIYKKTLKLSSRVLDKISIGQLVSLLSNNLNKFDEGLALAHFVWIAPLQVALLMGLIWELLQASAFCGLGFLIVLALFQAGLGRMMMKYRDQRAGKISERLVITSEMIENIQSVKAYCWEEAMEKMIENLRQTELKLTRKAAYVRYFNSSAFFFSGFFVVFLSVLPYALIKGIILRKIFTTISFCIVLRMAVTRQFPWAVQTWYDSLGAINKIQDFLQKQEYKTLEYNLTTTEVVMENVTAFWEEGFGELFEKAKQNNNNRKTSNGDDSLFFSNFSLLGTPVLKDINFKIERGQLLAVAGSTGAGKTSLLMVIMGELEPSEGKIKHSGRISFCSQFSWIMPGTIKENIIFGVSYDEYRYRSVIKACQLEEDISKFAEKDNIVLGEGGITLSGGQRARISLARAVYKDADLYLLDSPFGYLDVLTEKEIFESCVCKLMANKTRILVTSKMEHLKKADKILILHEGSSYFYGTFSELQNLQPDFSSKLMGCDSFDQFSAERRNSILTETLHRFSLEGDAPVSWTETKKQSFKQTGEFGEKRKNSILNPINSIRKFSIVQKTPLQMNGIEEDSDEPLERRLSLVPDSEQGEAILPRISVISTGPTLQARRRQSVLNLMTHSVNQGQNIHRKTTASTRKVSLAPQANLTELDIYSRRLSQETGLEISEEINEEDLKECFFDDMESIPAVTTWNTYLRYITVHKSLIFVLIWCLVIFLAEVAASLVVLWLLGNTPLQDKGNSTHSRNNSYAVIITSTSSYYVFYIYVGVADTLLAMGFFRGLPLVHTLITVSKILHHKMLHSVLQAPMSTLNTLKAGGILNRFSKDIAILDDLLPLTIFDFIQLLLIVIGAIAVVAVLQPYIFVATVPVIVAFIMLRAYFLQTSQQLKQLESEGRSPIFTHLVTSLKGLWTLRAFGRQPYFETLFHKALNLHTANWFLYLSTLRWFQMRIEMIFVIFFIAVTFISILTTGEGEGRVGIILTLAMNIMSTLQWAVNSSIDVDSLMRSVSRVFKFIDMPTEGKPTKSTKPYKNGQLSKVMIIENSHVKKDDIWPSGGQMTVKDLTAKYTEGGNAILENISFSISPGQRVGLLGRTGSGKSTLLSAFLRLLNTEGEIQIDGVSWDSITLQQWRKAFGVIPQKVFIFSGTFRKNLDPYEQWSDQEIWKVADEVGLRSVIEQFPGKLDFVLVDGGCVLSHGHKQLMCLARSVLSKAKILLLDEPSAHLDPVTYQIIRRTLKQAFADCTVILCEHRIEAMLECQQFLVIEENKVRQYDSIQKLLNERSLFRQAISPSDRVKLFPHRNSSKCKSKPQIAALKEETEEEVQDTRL

Row | SMILES | IC50 [µM]
1 | O=C(c1cc(-c2cc(Cl)c(O)c(Cl)c2)nnc1OCCc1ccc(Cl)cc1)N(CCO)Cc1ccccc1 [Compound 11, N-benzyl-3-(4-chlorophenethoxy)-6-(3,5-dichloro-4-hydroxyphenyl)-N-(2-hydroxyethyl)pyridazine-4-carboxamide] | 8.26
2 | CCN(Cc1ccccc1)C(=O)c1cc(-c2cc(Cl)c(O)c(Cl)c2)nnc1OCCc1ccc(Cl)cc1 [Compound 27, N-benzyl-3-(4-chlorophenethoxy)-6-(3,5-dichloro-4-hydroxyphenyl)-N-ethylpyridazine-4-carboxamide] | 17
3 | CN(Cc1ccccc1)C(=O)c1cc(-c2cc(Cl)c(O)c(Cl)c2)nnc1OCCc1ccc(Cl)cc1 [Compound 28, N-benzyl-3-(4-chlorophenethoxy)-6-(3,5-dichloro-4-hydroxyphenyl)-N-methylpyridazine-4-carboxamide] | 10.2
4 | COCCN(Cc1ccccc1)C(=O)c1cc(-c2cc(Cl)c(O)c(Cl)c2)nnc1OCCc1ccc(Cl)cc1 [Compound 29, N-benzyl-3-(4-chlorophenethoxy)-6-(3,5-dichloro-4-hydroxyphenyl)-N-(2-methoxyethyl)pyridazine-4-carboxamide] | 8.5
5 | O=C(c1cc(-c2cc(Cl)c(O)c(Cl)c2)nnc1OCCc1ccc(Cl)cc1)N(CCO)Cc1ccc(Cl)c(Cl)c1 [Compound 30, 3-(4-chlorophenethoxy)-6-(3,5-dichloro-4-hydroxyphenyl)-N-(3,4-dichlorobenzyl)-N-(2-hydroxyethyl)pyridazine-4-carboxamide] | 19
6 | COc1ccc(CN(CCO)C(=O)c2cc(-c3cc(Cl)c(O)c(Cl)c3)nnc2OCCc2ccc(Cl)cc2)cc1 [Compound 31, 3-(4-chlorophenethoxy)-6-(3,5-dichloro-4-hydroxyphenyl)-N-(2-hydroxyethyl)-N-(4-methoxybenzyl)pyridazine-4-carboxamide] | 25.2
7 | O=C(c1cc(-c2cc(Cl)c(O)c(Cl)c2)nnc1OCCc1ccc(Cl)cc1)N(CCO)Cc1ccc2c(c1)OCO2 [Compound 32, N-(benzo[d][1,3]dioxol-5-ylmethyl)-3-(4-chlorophenethoxy)-6-(3,5-dichloro-4-hydroxyphenyl)-N-(2-hydroxyethyl)pyridazine-4-carboxamide] | 16.1
8 | COc1ccc(CN(CCO)C(=O)c2cc(-c3cc(Cl)c(O)c(Cl)c3)nnc2OCCc2ccc(Cl)cc2)cc1OC [Compound 33, 3-(4-chlorophenethoxy)-6-(3,5-dichloro-4-hydroxyphenyl)-N-(3,4-dimethoxybenzyl)-N-(2-hydroxyethyl)pyridazine-4-carboxamide] | 13.7
9 | CC(C)(C)c1ccc(CNC(=O)c2cc(-c3cc(Cl)c(O)c(Cl)c3)nnc2OCCc2ccc(Cl)cc2)cc1 [Compound 34, N-(4-tert-butylbenzyl)-3-(4-chlorophenethoxy)-6-(3,5-dichloro-4-hydroxyphenyl)pyridazine-4-carboxamide] | 20.1

system: cholera toxin (CTX)-induced net fluid secretion in small intestine loops; test: not given; format: in vivo, mice (CD1 strain); conditions: 4 hours

Row | SMILES | closed loop % inhibition@100 μg [%]
10 | O=C(c1cc(-c2cc(Cl)c(O)c(Cl)c2)nnc1OCCc1ccc(Cl)cc1)N(CCO)Cc1ccccc1 [Compound 11, N-benzyl-3-(4-chlorophenethoxy)-6-(3,5-dichloro-4-hydroxyphenyl)-N-(2-hydroxyethyl)pyridazine-4-carboxamide] | 63.2
